For the assay, the target named is Proto-oncogene tyrosine-protein kinase Src (Homo sapiens) (UniProt P12931). Description: SRC Y416 autophosphorylation block in cells – cell-based, Western blot, late-stage follow-up (AID 1224913). As to conditions: MDA-MB-231/MCF7 cells, pSRC Y416 Western blot; at 0.1 µM; hits give high values. (In general: A western blot detects proteins with antibodies after separation by electrophoresis.)

The inhibition is the change of the read-out against control, counted positive when it falls.

Proto-oncogene tyrosine-protein kinase Src (Homo sapiens), sequence (P12931 whole entry, looked up): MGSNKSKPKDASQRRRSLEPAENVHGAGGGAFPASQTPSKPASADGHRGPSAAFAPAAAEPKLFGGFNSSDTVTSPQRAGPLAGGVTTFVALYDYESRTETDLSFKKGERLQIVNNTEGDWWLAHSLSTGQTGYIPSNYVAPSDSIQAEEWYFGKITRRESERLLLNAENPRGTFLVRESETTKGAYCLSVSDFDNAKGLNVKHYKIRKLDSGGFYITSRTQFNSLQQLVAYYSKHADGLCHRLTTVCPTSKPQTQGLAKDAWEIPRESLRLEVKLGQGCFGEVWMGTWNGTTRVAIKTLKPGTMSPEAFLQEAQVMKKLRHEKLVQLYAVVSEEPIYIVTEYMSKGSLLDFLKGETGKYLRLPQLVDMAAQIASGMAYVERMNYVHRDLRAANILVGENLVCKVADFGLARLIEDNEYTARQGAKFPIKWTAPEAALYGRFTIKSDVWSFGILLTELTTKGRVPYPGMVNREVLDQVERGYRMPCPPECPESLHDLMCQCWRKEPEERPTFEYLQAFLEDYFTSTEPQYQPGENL

As to `COc1cc(-c2nn(CCN3CCC(N(C)C)CC3)c3ncnc(N)c23)ccc1NC(=O)OC(C)(C)C`, the inhibition was 100%.
